The experiment relates to Plasmodium falciparum. Kind of experiment: GSK_TCMDC: Inhibition of Plasmodium falciparum 3D7 in whole erythrocytes, using parasite LDH activity as an index of growth. Type of experiment: functional, organism-based.

The molecule `CC1(CCCCN2CCC(Cc3ccccc3)CC2)C(=O)Nc2ccccc21` (stereo unspecified) registered an XC50 (Plasmodium falciparum, 3D7) of 855 nM.
Turning to `CCN1CCN(c2ccc(Nc3ccnc4ccc(Br)cc34)cc2)CC1`, the XC50 (Plasmodium falciparum, 3D7) was found to be 300 nM.
For `O=C(/C=C/c1ccc(Cl)c(Cl)c1)NCCCCCN1CCC(NC(=S)Nc2ccc(F)cc2F)CC1`, for the setting “Plasmodium falciparum, 3D7”, the XC50 stood at 805 nM.
Same read-out and setting: the value for `Oc1cc(Nc2ccnc3cc(-c4cccc(CN5CCCCC5)c4)ccc23)c(F)cc1Cl` was 102 nM.
On the same count and under the same terms, as for `COc1ccc2[nH]c(-c3ccccc3)cc(=NN=Cc3ccncc3)c2c1`, the figure is 812 nM.
The same measure, in the same setting: the value for `COc1cccc(CC(=O)NC2CCN(c3ccnc4cc(Cl)ccc34)C2)c1` (stereo unspecified) was 704 nM.
Molecule `CCCCCOc1ccc(/N=C2\C=C(O)C(=O)c3ccccc32)cc1` registered an XC50 (Plasmodium falciparum, 3D7) of 243 nM.
Still for that read-out and setting: the value for `C=CCc1cc(Cc2cnc(N)nc2N)cc(CCC)c1O` was 986 nM.
On the same count and under the same terms, as for `O=C(Nc1ccc2c(c1)CCN2C1CCN(Cc2cccc3cc[nH]c23)C1)c1ccco1` (stereo unspecified), the figure is 1210 nM; as for `CN1CCN(c2ccc(Nc3c(C(N)=O)cnc4cc(-c5ccoc5)ccc34)cc2)CC1`, 806 nM.
The molecule `O=C(NC1CCC(CN2CCC(c3c[nH]c4ccccc34)CC2)CC1)c1cc2ccccc2o1` (stereo unspecified) had an XC50 (Plasmodium falciparum, 3D7) of 971 nM.
Where the note is “Plasmodium falciparum, 3D7”, `O=C(Nc1ccc(F)cc1)N1CCCN(c2ccnc3cc(Cl)ccc23)CC1` returned an XC50 of 785 nM.
`CCCCN(CCCC)CCCCNc1c2ccccc2nc2ccccc12` displayed an XC50 (Plasmodium falciparum, 3D7) of 148 nM.
Regarding `COC1CCC(C(=O)Nc2ccc(-c3cccc(-c4nc5cccc(C)c5[nH]4)c3)cc2)CC1` (stereo unspecified), under “Plasmodium falciparum, 3D7”, the XC50 was 585 nM.
For the setting “Plasmodium falciparum, 3D7”, `O=C(Nc1ccc2c(c1)CCN(C1CCC1)CC2)c1cn(-c2ccccc2)nc1-c1ccccc1` yielded an XC50 of 808 nM.
Same read-out and setting: the value for `CC(C)NC(=O)Cn1cc(C2CCN(CC3CCN(C(=O)/C=C/c4ccc(Cl)c(Cl)c4)CC3)CC2)c2ccccc21` was 1030 nM.
The same measure, in the same setting: the value for `Cc1ccc(C)c(CC(=O)N2CCC(n3c(C)nc4ccc(F)cc43)CC2)c1` was 193 nM; that for `Cc1cc(CNCCCCCCCNCc2ccc(-c3ccccc3)cc2)ccc1O` was 493 nM; that for `CN1CCN(CCCN(Cc2csc(-c3ccc(CNCc4ccccc4)cc3)n2)C(=O)Nc2cc(Cl)cc(Cl)c2)CC1` was 700 nM.
Take `CCOC(=O)c1c(SCc2cccc(F)c2F)[nH]c2ccccc2c1=O`: the XC50 (Plasmodium falciparum, 3D7) worked out at 644 nM.
Same read-out and setting: as for `COc1ccc(C=NNc2ccnc3cc(F)c(C)cc23)c2ccccc12`, the figure is 771 nM.
On the same count and under the same terms, the value for `O=C(Nc1ccc(OC2CCN(Cc3ccccc3)CC2)c(Cl)c1)c1ccsc1` was 900 nM; that for `COc1ccc(CNC(=O)c2cnc3cc(-c4c(C)noc4C)ccc3c2Nc2ccccc2C(C)(C)C)cc1` was 1300 nM.
For `Cc1nc2c(c(O)c1Cl)-c1ccc(Oc3cccc(C(F)(F)F)c3)cc1C2=O`, the XC50 came to 36.9 nM.
`Cc1ccc(CCC(C)NCC(O)c2cccc(C(F)(F)F)c2)cc1` (stereo unspecified) had an XC50 (Plasmodium falciparum, 3D7) of 561 nM.
In turn, `CNCc1ccc(-c2cccc(CNCc3ccc(-c4ccccc4)cc3)c2)c(C(=O)OC)c1` had an XC50 (Plasmodium falciparum, 3D7) of 980 nM.
In turn, `COc1ccc2nc3cc(Cl)ccc3c(Nc3ccc(O)c(CNC(C)C)c3)c2c1` had an XC50 (Plasmodium falciparum, 3D7) of 140 nM.
Still for that read-out and setting: as for `O=C(Nc1ccc(N2CCC(Nc3ccccn3)CC2)cc1)c1cnc(Cl)c(Cl)c1`, the figure is 1190 nM; as for `Cc1[nH]c(C)c(-c2ccc(Oc3ccc(O)cc3)cc2)c(=O)c1Cl`, 1040 nM.
Take `CC(C)Cc1csc(NC(=O)C=Cc2ccco2)c1C(=O)O`: where the note is “Plasmodium falciparum, 3D7”, the XC50 was determined as 305 nM.
The molecule `CC(C)(C)c1ccc(C(=O)Nc2ccc(NC(=O)c3ccc([N+](=O)[O-])o3)cc2)cc1` had an XC50 (Plasmodium falciparum, 3D7) of 844 nM.
The same measure, in the same setting: the value for `CCOc1cc(CC)ccc1C1CCN(CCCCNC(=O)c2ccc(NC(=O)c3ccc(Cl)cc3)cc2)CC1` was 743 nM; that for `O=C(c1ccc(-c2cccc(-c3nc4cc(C(F)(F)F)ccc4[nH]3)c2)cc1)N1CCCCC1CN1CCC(O)C1` (stereo unspecified) was 652 nM.
On the same count and under the same terms, the value for `O=C(Nc1ccc(OC2CCN(Cc3ccc(F)cc3)C2)c(Cl)c1)c1ccco1` (stereo unspecified) was 195 nM; that for `COc1ccc(CNC2CCN(C)CC2)cc1-c1ccc(S(=O)(=O)NCC2CCCO2)s1` (stereo unspecified) was 800 nM; that for `CO/C(=C\C=C\c1cc2cc(Cl)c(Cl)cc2[nH]1)C(=O)NCCCN1CCN(c2cccc(Cl)c2)CC1` was 730 nM.
`Cc1ccc2cc(NCCCCCCCCON3C(N)=NC(N)=NC34CCCCC4)ccc2n1` returned an XC50 (Plasmodium falciparum, 3D7) of 163 nM.
Under “Plasmodium falciparum, 3D7”, `COc1ccccc1C1CCN(CCCCNC(=O)c2ccc(/C=C/c3cc(Cl)cc(Cl)c3)cc2)CC1` came in with an XC50 of 718 nM.
For the setting “Plasmodium falciparum, 3D7”, `CN1CCC(C(=O)Nc2ccc(-c3cccc(-c4nc5cc(F)ccc5[nH]4)c3)cc2)CC1` yielded an XC50 of 792 nM.
Same read-out and setting: the value for `CCCCOP(=O)(COc1ccc(CCN(CC(O)COc2cccc3[nH]c4ccccc4c23)CC(O)COc2cccc3[nH]c4ccccc4c23)cc1)C1CCCCC1` (stereo unspecified) was 939 nM; that for `O=C(NCC1CC1)C1CCN(C(c2ccc(Cl)cc2)c2ccc(Cl)cc2)CC1` was 190 nM; that for `OCC1CCN(Cc2cccc(-c3ccc(-c4nc5cc(C(F)(F)F)ccc5[nH]4)s3)c2)CC1` was 588 nM.
`O=C(Nc1ccc(Br)cc1)Nc1ccc(Cn2ncc(N3CCCNCC3)c(Cl)c2=O)cc1` came in with an XC50 (Plasmodium falciparum, 3D7) of 1140 nM.
`CCCC(C)N(Cc1ccc(C(C)(C)C)cc1)C(=O)c1cccc(C#N)c1` (stereo unspecified) showed an XC50 (Plasmodium falciparum, 3D7) of 1050 nM.
Same read-out and setting: the value for `CCN1CCN(CCCNc2c3ccc(Cl)cc3nc3ccc(O)cc23)CC1` was 566 nM; that for `CC(C#N)Cc1ccc(-c2cnc(N)c3cc(-c4ccnc(N)n4)ccc23)cc1` (stereo unspecified) was 986 nM; that for `CC(CN(C)C)C(=O)Nc1ccc(-c2ccc(-c3nc4ccccc4[nH]3)cc2)cc1` (stereo unspecified) was 741 nM.
On the same count and under the same terms, the value for `CC(C)NCC(O)Cn1c2ccc(Br)cc2c2cc(Br)ccc21` (stereo unspecified) was 451 nM; that for `CC(C)NC(=O)c1cccc(-c2ccc(OCCN3CCCC3c3cc4ccccc4[nH]3)cc2)c1` (stereo unspecified) was 958 nM; that for `Cn1cc(C2CCN(CCCCCNC(=O)/C=C/c3ccc(Cl)c(Cl)c3)CC2)c2cc(O)ccc21` was 943 nM.
In the case of `CCCc1cc([C@@H](O)[C@@H]2C[C@@H]3CCN2C[C@@H]3CC)c2ccccc2n1`, the XC50 (Plasmodium falciparum, 3D7) amounted to 433 nM.
On to `COc1ccc2ncc(Cl)c(CCN3CCC(NCc4ccc5c(n4)NC(=O)CO5)CC3)c2c1`, for which the XC50 (Plasmodium falciparum, 3D7) came out at 470 nM.
Consider `COc1ccc(N2CCc3c(-c4cccc5cnccc45)cc(C)nc32)c(C)c1`, for which the XC50 (Plasmodium falciparum, 3D7) was determined as 655 nM.
For `O=C(Nc1ccc(-c2ccccc2)c(OCCN2CCNCC2)c1)c1ccc(-c2ccc(Cl)cc2)cc1`, the XC50 (Plasmodium falciparum, 3D7) worked out at 779 nM.
`COc1ccc(CNC2CCN(C)CC2)cc1-c1ccc(S(=O)(=O)NCCc2ccccn2)c(F)c1` came in with an XC50 (Plasmodium falciparum, 3D7) of 819 nM.
Same read-out and setting: the value for `COc1ccc(CNC2CCCC2)cc1-c1ccc(S(=O)(=O)NCCN2CCCC2)s1` was 798 nM; that for `O=C(NOCCCCOc1ccc(Cl)c(Cl)c1)c1ccccc1` was 183 nM.
In turn, `O=C(NCCN1CCCC1)c1ccc(-c2cccc(-c3nc4cc(F)ccc4[nH]3)c2)cc1` had an XC50 (Plasmodium falciparum, 3D7) of 774 nM.
`CC(Oc1ccc(Cl)cc1)C(=O)N(C)C1CCN(CCCCCNC(=O)/C=C/c2ccc(Cl)c(Cl)c2)CC1` (stereo unspecified) yielded an XC50 (Plasmodium falciparum, 3D7) of 959 nM.
On the same count and under the same terms, as for `CC1(C)N=C(NC(=O)c2ccc([N+](=O)[O-])cc2)N=C(N)N1OCc1ccc2ccccc2c1`, the figure is 7.57 nM; as for `O=S(=O)(c1ccccc1)C1CC1`, 724 nM; as for `CN1CCC(NCc2cccc(-c3ccc(S(=O)(=O)NCCc4ccccn4)cc3)c2)CC1`, 827 nM.
Turning to `COc1nc2c(CCN3CC[C@@H](NCc4cc(C#N)c5c(c4)CCO5)[C@@H](O)C3)ccnc2cc1F`, where the note is “Plasmodium falciparum, 3D7”, the XC50 stood at 1030 nM.
With `COc1ccc(Cl)cc1N1CCN(CCCNC(=O)c2ccc(-c3nc4ccc(C(F)(F)F)cc4[nH]3)c(C)c2)CC1`, the XC50 (Plasmodium falciparum, 3D7) came to 762 nM.
Take `O=S(=O)(c1cc2ccccc2s1)N(CCC(O)(C(F)(F)F)C(F)(F)F)Cc1cccc(O)c1`: the XC50 (Plasmodium falciparum, 3D7) is 751 nM.
On the same count and under the same terms, as for `Cc1cc(-c2ccc(NC(=O)N3CCc4cc(Br)c(N5CCN(C)CC5)cc43)cc2)cc(C)n1`, the figure is 1010 nM.
Under “Plasmodium falciparum, 3D7”, `COc1ccc2nccc([C@@H](O)CN3CCC(NC(=O)c4ccc(C5(C(F)(F)F)N=N5)cc4)CC3)c2c1` gave an XC50 of 931 nM.
Turning to `CC(C)(C)OC(=O)N[C@@H](CS(=O)(=O)CCNC(=N)COCc1ccccc1)C(=O)OC(C)(C)C`, the XC50 (Plasmodium falciparum, 3D7) came out at 821 nM.
`O=C(Nc1ccc(N2CCNCC2)nc1)c1oc(-c2ccccc2)nc1C(F)(F)F` yielded an XC50 (Plasmodium falciparum, 3D7) of 981 nM.
The same measure, in the same setting: as for `CCN(CCCN1CCCCC1)c1cc(C)nc(Nc2ccc(OC)cc2)n1`, the figure is 621 nM; as for `Cc1cc(N2CCCC2)nc(Nc2ccc(NC(=O)c3ccccc3C)cc2)n1`, 724 nM; as for `COc1ccc(CC(Cc2ccc(OC)cc2)NCC(O)c2cccc(Cl)c2)cc1` (stereo unspecified), 155 nM.
Molecule `Fc1cccc(-c2ccc3c(c2)CC(NCc2c[nH]c4cnccc24)C3)c1` (stereo unspecified) registered an XC50 (Plasmodium falciparum, 3D7) of 480 nM.
On the same count and under the same terms, the value for `CN(C)CC1CCCN1Cc1ccccc1-c1cnn(C)c(=O)c1Oc1ccccc1F` (stereo unspecified) was 1310 nM.
For the molecule `CN1CC[C@H](N(Cc2ccccc2F)c2ccc(C#N)c(Cl)c2)C1`, the XC50 (Plasmodium falciparum, 3D7) was determined as 1270 nM.
Still for that read-out and setting: the value for `CC1(C)C(N(O)C(=O)Nc2ccc(Cl)c(Cl)c2)N(c2ccc(Cl)c(Cl)c2)C(=O)N1CCc1ccccc1` (stereo unspecified) was 823 nM.
With `CC(C)(C)c1ccc(NC(=O)c2cccc(CN3CCCN(CC4CCCCC4)CC3)c2)cc1`, the XC50 (Plasmodium falciparum, 3D7) came out at 737 nM.
On the same count and under the same terms, the value for `O=[N+]([O-])c1ccc(-c2ccc(C=NNc3nc(Nc4ccccc4)nc(Nc4ccccc4)n3)o2)cc1` was 1430 nM; that for `Cn1cc(CN2CCCC(COC(c3ccc(F)cc3)c3ccc(F)cc3)C2)cn1` (stereo unspecified) was 571 nM; that for `COc1ccc(S(=O)(=O)Nc2ccc(C(=O)NCc3ccccc3C(F)(F)F)cc2)cc1N1CCN(CC2CC2)CC1` was 1150 nM.
As for `COc1ccc2nccc(N3CCC(CCNCc4ccc5c(n4)NC(=O)CO5)CC3)c2c1`, where the note is “Plasmodium falciparum, 3D7”, the XC50 was 705 nM.
Take `COc1cc(CNC[C@@H](O)[C@H](Cc2ccccc2)NC(=O)c2cc(C3CCCC3)cc(N3CCCCS3(=O)=O)c2)cc(OC)c1`: the XC50 (Plasmodium falciparum, 3D7) was 704 nM.
For `Cc1ccc(Cn2ncc(N3CCCNCC3)c(Cl)c2=O)cc1NC(=O)Nc1ccc(-c2ccccc2)cc1`, under “Plasmodium falciparum, 3D7”, the XC50 was 625 nM.
Molecule `CCCSc1nc2c(c(=O)n1Cc1ccco1)C1(CCCCC1)Cc1ccccc1-2` came in with an XC50 (Plasmodium falciparum, 3D7) of 424 nM.
Molecule `O=C(/C=C/c1ccc(Cl)c(Cl)c1)N1CCC(CN2CCC(c3c(-c4ccccc4)[nH]c4ccccc34)CC2)CC1` displayed an XC50 (Plasmodium falciparum, 3D7) of 335 nM.
Turning to `COc1ccc2c(NCCc3ccccc3)cc(-c3ccccc3)nc2c1`, the XC50 (Plasmodium falciparum, 3D7) worked out at 987 nM.
